Earlier results as cited in patent US20190203187A1, “CHEMILUMINESCENT WETNESS INDICATOR FOR ABSORBENT PRODUCTS” (International Paper Company, priority 2014, published 2019).

Assays:
Renilla Luciferase = molecular target: T1, Renilla Luciferase (Renilla reniformis, UniProt P27652)
T1 sequence (P27652 1-311): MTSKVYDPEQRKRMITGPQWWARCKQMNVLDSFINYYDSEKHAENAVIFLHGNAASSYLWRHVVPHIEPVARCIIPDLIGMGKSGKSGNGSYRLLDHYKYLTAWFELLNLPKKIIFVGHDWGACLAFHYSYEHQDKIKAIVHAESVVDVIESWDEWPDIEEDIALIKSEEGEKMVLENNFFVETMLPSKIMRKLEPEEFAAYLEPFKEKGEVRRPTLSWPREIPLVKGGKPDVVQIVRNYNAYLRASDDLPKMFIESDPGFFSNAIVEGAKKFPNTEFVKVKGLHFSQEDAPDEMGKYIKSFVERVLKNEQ

[1] = system: Gaussia luciferase (Gluc)
apoaequorin = molecular target: T2, apoaequorin (Aequorea victoria, UniProt P07164); conditions: for luminescence intensity relative to coelenterazine (native form): coelenterazine-apoaequorin (aequorin) complex
T2 sequence (P07164 8-196): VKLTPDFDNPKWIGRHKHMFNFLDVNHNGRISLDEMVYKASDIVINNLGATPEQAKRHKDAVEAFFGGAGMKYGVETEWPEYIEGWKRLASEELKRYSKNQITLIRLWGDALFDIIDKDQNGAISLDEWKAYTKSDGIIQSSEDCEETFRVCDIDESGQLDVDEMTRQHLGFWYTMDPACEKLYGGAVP

| Compound | quality as substrate for Renilla luciferase (Renilla Luciferase) | luminescence intensity relative to coelenterazine (native form) (apoaequorin) [times] | further results |
| --- | --- | --- | --- |
| O=c1c(Cc2ccccc2)nc2c(Cc3ccccc3)[nH]c(-c3ccccc3)cn1-2 [coelenterazine 400a, coelenterazine 400a (2-2′(4-dehydroxy)) coelenterazine] | good substrate | – | emission maximum (Renilla Luciferase; substrate for Renilla luciferase, BRET): 400 nm; oxidation with Gaussia luciferase [1]: does not oxidize well |
| Oc1ccc(Cc2nc3c(CC4CCCC4)nc(-c4ccc(O)cc4)cn3c2O)cc1 [coelenterazine cp] | – | 15 | – |
| Oc1ccc(Cc2nc3c(Cc4ccccc4)nc4c(n3c2O)CCc2cc(O)ccc2-4)cc1 [coelenterazine e] | – | – | quality as substrate for apoaequorin (apoaequorin): poor substrates |
| Oc1ccc(-c2cn3c(O)c(Cc4ccc(F)cc4)nc3c(CC3CCCC3)n2)cc1 [coelenterazine fcp] | poor substrate | 135 | – |
| coelenterazine f | – | 20 | emission maximum longer than that of the native form (apoaequorin; coelenterazine-apoaequorin complex): about 8 nm |
